Reference: publication PMC5772648, “Targeted NUDT5 inhibitors block hormone signaling in breast cancer cells” (Nature Communications, 2018)

How the values were obtained:
[1] = target: T1, NUDT5 in intact HL-60 cells (Homo sapiens, UniProt Q9UKK9); test: intact cell CETSA; type: cell-based; details: 20 µM, 83 °C
T1 construct: endogenous in cells; host or cells: HL-60
Method: For CETSA experiments with cells treated in culture, 1 × 10^6 HL-60 were treated with DMSO (0.1 % v/v final) or 20 µM compound for 3 h at 37 °C and 5% CO2 in a humidified incubator. T47D^WT cells were treated instead with 80 µM TH1659, 15 µM TH5423/5424 and 1.5 µM TH5427. The cells were harvested, washed twice with PBS and resuspended in TBS with protease inhibitors, as above. Heating was identical as before, except that immediately following heating, the cell suspensions were snap frozen in a dry ice/ethanol bath and freeze-thawed, as previously, to lyse cells. Centrifugation at 20 000 × g for 20 min at 4 °C removed cellular debris and protein aggregates, and lysates were prepared for western blotting.

[2] = test system: nuclear ATP production in T47D^WT cells; test: nuclear ATP visualization by bioluminescence (Nuc-luc reporter) after R5020; type: cell-based; details: 10 nM R5020
Method: (§1) For hormone and inhibitor treatments, normal T47D^WT cells or cells containing a single copy of luciferase under the control of the mouse mammary tumor virus (MMTV) promoter (T47D^M) were used[23]. Prior to hormone induction, cells were grown in phenol red-free RPMI medium supplemented with 10% dextran-coated charcoal-treated FBS (DCC/FBS). After 16 h in serum-free conditions, cells were pre-incubated with DMSO (vehicle) or NUDT5 inhibitor for 2 h at the indicated dose before addition of R5020 (10 nM) or vehicle (ethanol, EtOH) for the allotted time.
T47D^WT cells were seeded in RPMI in black-walled 96-well plates and transfected using Lipofectamine 2000® (Invitrogen, manufacturer’s instructions) with the nuclear-targeted luciferase constructs (Nuc-luc FRTTO[53]) at a final concentration of 50 ng DNA/well for 48 h. 16 h prior to hormone (R5020, 10 nM) exposure, cells were synchronized by serum starvation. Bioluminescence was activated by addition of 100 µl D-luciferin (1 mg/mL water, Sigma) and ATP was quantified using an IVIS system (Xenogen Corp).

[3] = target: T2, NUDT5 in HL-60 cell lysates (Homo sapiens, UniProt Q9UKK9); test: cell lysate CETSA (HT-CETSA); type: binding; details: 20 µM, 83 °C
T2 construct: endogenous in cells; host or cells: HL-60
Method: Target engagement in cells was determined by the cellular thermal shift assay (CETSA)[29]. Briefly, cell lysate thermal shift assays were performed with 1 × 10^6 HL-60 cells per temperature/condition. Cells were collected and washed once with PBS and resuspended in TBS with protease inhibitor cocktail (Mini cOmplete, EDTA-free, Roche) at 60 µL/1 × 10^6 cells. The cells were then aliquoted and lysed by freeze-thawing three times with 3-min incubations (3x, 3 min.+3 min.) using an ethanol/dry ice bath and water bath at 37 °C. The lysates were then centrifuged at 20,000×g for 20 min at 4 °C to remove cellular debris. Supernatants were then transferred to PCR strip tubes and treated with 0.5 µL DMSO (0.8% v/v final) or 20 µM inhibitor for 20 min at room temperature. Lysates with compounds were heated at the indicated temperature in a Veriti Thermal Cycler (Applied Biosystems) for 3 min, then cooled for another 3 min at room temperature. They were then centrifuged at 20 000 × g for 20 min at 4 °C to pellet protein aggregates and 45 µL was removed and prepared for western blotting analysis.

T47D cells = test: cell viability by resazurin; type: cell-based; details: 72 h
Method: Cell viability was assessed by resazurin[9]. 5000 HL-60 cells (or 1000 U-2 OS/2000 T47D cells) were seeded per well on a 96-well plate. The following morning, compounds (or the equivalent amount of DMSO) were added to obtain the final concentrations indicated and the cells were incubated at 37 °C for 72 h with resazurin added at 0.02 mg/mL for the last 2–6 h. Resorufin fluorescence was detected at […] with a Hidex Sense fluorescent plate reader. Viability curves were fit using the sigmoidal dose-response (variable slope) function in GraphPad Prism 7.

[4] = test system: histone H1 displacement in T47D cells; test: histone H1 displacement by chromatin immunoprecipitation after R5020; type: cell-based; details: 30 min R5020
Method: as §1
ChIP assays were performed using a histone H1-specific antibody, AE4 (Abcam)[54]. 1 × 10^7 T47D^M cells (plated and treated with hormone and/or inhibitor, as described above) were cross-linked for 10 min with 1% formaldehyde. Lysates were sonicated (Biorupter sonicator, Diagenode) resulting in DNA fragments with a size range of 200-300 bp. […] The resultant eluted DNA was quantified by Qubit 3.0 Fluorometer (Life Technologies) and qPCR (LightCycler FastStart DNA Master SYBR Green I, Roche). The fold enrichment of target sequences in the immunoprecipitated (IP) compared to input (I) fractions were calculated using the comparative Ct method (2^Ct(IP)−Ct(I)). […]

SMILES	NUDT5 stabilization in intact cells [1]	nuclear luminescence (nuclear ATP) after R5020 ([2]; 15 µM)	NUDT5 stabilization in cell lysates [3]	toxicity in T47D cells (T47D cells)	histone H1 displacement after R5020 ([4]; 15 µM)	nuclear luminescence (nuclear ATP) after R5020 ([2]; 1.5 µM)	histone H1 displacement after R5020 ([4]; 1.5 µM)
CCN1CCN(c2nc3c(c(=O)n(C)c(=O)n3C)n2Cc2nnc(-c3ccc(Cl)c(Cl)c3)o2)CC1 [TH5424]	stabilized NUDT5 to nearly the same levels as observed in the 37 °C DMSO control	strong luminescence was observed	showed the most stabilization of NUDT5 in cell lysates	generally non-toxic when used below 20 µM	moderate effects	–	–
Cn1c(=O)c2c(nc(N3CCNCC3)n2Cc2nnc(-c3ccc(Cl)c(Cl)c3)o2)n(C)c1=O [TH5427]	stabilized NUDT5 to nearly the same levels as observed in the 37 °C DMSO control	–	showed the most stabilization of NUDT5 in cell lysates	generally non-toxic when used below 20 µM	–	marked reduction in nuclear luminescence	inhibited histone H1 displacement
